A value given as a limit tells only on which side of the number the result lay.

`COc1c(Cl)cc(-c2cc(F)c(F)cc2-c2ccc(S(N)(=O)=O)cc2)cc1Cl` registered a melting point of 146 °C.
Take `COc1cccc(C2C(=O)CCc3ccccc32)c1` (configuration not stated): the melting point was in the range of 161 to 162 °C.
Molecule `O=C(O)c1ccc(-c2cccc3ccccc23)cc1` had a melting point of 221 to 224 °C.
With `O=C(NNc1ccc(NC(=S)NCc2ccccc2)cc1)c1ccc(F)cc1`, the melting point lay in the range of 186 to 188 °C.
Consider `COc1c(C(C)(C)C)cc(C=O)c(O)c1Br`, for which the melting point lay within 123 to 124 °C.
In turn, `O=C1OC(c2ccccc2)C(c2ccccc2)=C1C(=O)N1CCOCC1` (configuration not stated) displayed a melting point of 204 to 206 °C.
For the molecule `Cc1nc(CO)n(C)c1[N+](=O)[O-]`, the melting point lay within 113 to 114 °C.
Molecule `COC(=O)NC(C)Cc1cccc([N+](=O)[O-])c1` (configuration not stated) displayed a melting point of 104 to 105 °C.
With `COc1ncccc1-c1cncc(OC2SCC(O)C(O)C2O)c1` (configuration not stated), the melting point stood at 209 °C.
As for `O=c1oc2ccc(-c3ccc(F)cc3F)cc2c(=O)n1-c1ccc(F)cc1F`, the melting point was in the range of 155 to 156 °C.
As for `CSc1nc(NCC=C(C)C)c2ccnc-2[nH]1`, the melting point was in the range of 155 to 156 °C.
Molecule `C=CCn1c(=O)c2cnc(-n3ccnc3)nc2n(C(C)C)c1=O` registered a melting point of 158 to 160 °C.
In the case of `CC(=O)S[C@H]1C[C@@H](C(=O)Nc2cccc(C(=O)NS(C)(=O)=O)c2)N(C(=O)OCc2ccc([N+](=O)[O-])cc2)C1`, the melting point was in the range of 240 to 242 °C.
`N#Cc1nn(-c2c(Cl)cc(C(F)(F)F)cc2Cl)c(N)c1-c1ccc(Br)cc1` registered a melting point of 242 to 244 °C.
Turning to `O=c1c2c(Cl)cc(N3CCNCC3)cc2n(Cc2ccccc2)c(=O)n1Cc1cccc(I)c1`, the melting point lay in the range of 98 to 104 °C.
The result for `CC(=O)C1=C(C)Nc2nc(N)nc(N)c2C1c1ccccc1Cl` (configuration not stated) reads 254 °C; that for `O=C(NC1CCCCC1)c1c(O)c2ccccc2[nH]c1=O`, 221 °C.
To `ON=C1CN2CCC1CC2` belongs 117 to 119 °C; to `COc1ccc(C)cc1NC(=O)Nc1ccc(C2=CCN(C(=O)Nc3ccc(OCCO)cc3C(F)(F)F)CC2)cc1`, 150 to 153 °C.
Take `CN1C(=O)c2ccccc2CC1C(=O)NC(Cc1c[nH]cn1)C(=O)N1CCCC1C(N)=O` (configuration not stated): the melting point fell in the range of 140 to 145 °C.
`Nc1nccc(CCc2ccc3c(C(=O)Nc4cccc(C(F)(F)F)c4)cccc3c2)n1` displayed a melting point of 225 to 227 °C.
The result for `Cc1ccc(-c2[nH]nc(COCCCO)c2-c2ccc(S(N)(=O)=O)cc2)cc1` reads 85 to 86 °C; that for `NC(=O)Cn1cc(-c2ccccc2)c2cc(Cl)ccc21`, 220 to 221 °C; that for `O=C(O)C=CC(=O)c1ccccc1[N+](=O)[O-]`, 153 to 158 °C.
In turn, `N[C@H]1CCCC[C@@H]1Nc1ccnc2cc(Cl)ccc12` came in with a melting point of 160 °C.
To `COc1ccccc1NC(=O)Nc1ccc(N2CCN(C(=O)Nc3ccc(OCCO)cc3Cl)CC2)c(Cl)c1` belongs 173 to 175 °C; to `COc1cc(C=C(C#N)C(=O)Nc2ccccc2)cc(Cl)c1O`, 273 °C.
In turn, `Cc1oc(-c2ccc(C(F)(F)F)cc2)nc1CCOc1ccc(CN(O)C(N)=O)cc1F` yielded a melting point of 144 to 146 °C.
For the molecule `COc1ccc(NC(=S)NC(NC(=O)c2ccc(C)cc2)C(F)(F)F)cc1` (configuration not stated), the melting point fell in the range of 193 to 194 °C.
With `O=C1c2ccccc2C(=O)N1CCOc1nc(-c2ccccc2)c2cc(Cl)ccc2n1`, the melting point stood at 155 °C.
The result for `Nc1ncc(Oc2ccc(Cl)cc2)c(N2CCN(C=O)CC2)n1` reads 159 to 161 °C.
With `CCCCCCCCCCC[C@@H](C[C@@H]1OC(=O)[C@H]1CCCCCC)OC(=O)[C@H](CC(C)C)NC(=O)OCc1ccccc1`, the melting point fell in the range of 43 to 46 °C.
`COc1cc(OC)c(C(=O)O)c(C(F)(F)F)n1` displayed a melting point of 194 to 198 °C.
The molecule `COCCNC(=O)CN1CCN(Cc2ccc3c(c2)NC(=O)C(C)O3)CC1` (configuration not stated) returned a melting point of 111 to 142 °C.
`CC1(C)CCC(C)(C)c2cc3c(cc21)OCC3(C)c1cc(CO)cs1` (configuration not stated) displayed a melting point of 127 °C.
`CS(=O)c1ccnc(-c2nc(=O)c3ccccc3s2)c1` (configuration not stated) came in with a melting point of 205 to 206 °C.
`O=c1oc(-c2ccccc2)cc(O)c1SCCCc1ccccc1` had a melting point of 114 to 116 °C.
To `O=C1c2sccc2-n2cnc(-c3noc(CCl)n3)c2[C@@H]2CCN12` belongs 210 to 213 °C.
As for `CCOc1ccc2ccccc2c1C(=O)N[C@H](Cc1ccc(C(F)(F)F)cc1)[C@H](O)c1ccc(F)cc1` (racemic), the melting point was 157 to 158 °C.
The result for `COc1cccc(Cc2cc3cccc(-c4cccc(C(=O)NCCN5CCCC5)c4)c3o2)c1` reads 101 to 102 °C.
In turn, `COc1ccc(CCN(C)CCCCc2ccc(NC(=O)c3cccc4c(=O)c5ccccc5[nH]c34)cc2)cc1OC` returned a melting point of 120 °C.
Regarding `O=C1NC(=O)C(Br)(Cc2ccccc2)C(=O)N1`, the melting point was 164 to 166 °C.
Turning to `CN1C(=O)C(C(=O)Nc2ccc(F)cc2)S(=O)(=O)c2cc(Cl)ccc21` (configuration not stated), the melting point stood at 205 °C.
On to `COc1cc(C(=O)C=Cc2cc(-c3cccs3)ccc2OC)ccc1O`, for which the melting point fell in the range of 142 to 144 °C.
The result for `CNC1(c2ccccc2Cl)C(=O)Nc2ccc(C)cc21` (configuration not stated) reads 186 to 187 °C; that for `CC(=O)SC[C@@H](C(=O)N[C@H](CC(C)C)c1nnn[nH]1)C(F)(F)F`, 180 to 184 °C; that for `CCOC(=O)c1c(C)nc2[nH]c3ccccc3c2c1N`, 253 to 254 °C.
For the molecule `COc1ccc(S(=O)(=O)n2c(CCCC(=O)O)cc3nc(Cl)ccc32)c(C)c1`, the melting point lay in the range of 134 to 140 °C.
Take `C#CC1(O)CCC2C3CCC4=CC(=O)CCC4C3C(C(F)F)CC21C` (configuration not stated): the melting point was in the range of 185 to 187 °C.
The result for `COCc1c(-c2ccon2)ncc2[nH]c3ccc(OCc4ccccc4)cc3c12` reads 123 to 126 °C; that for `N=c1sc2cc(OC(F)(F)F)ccc2n1CCSCCCC(=O)c1ccccc1`, 72 °C.
Consider `CC(C)(C)CC(SC1CCCCC1)c1c(O)cc(-c2ccccc2)oc1=O` (configuration not stated), for which the melting point was above 225 °C.
`O=S(=O)(CC1CC1)c1nc[nH]n1` gave a melting point of 140 to 149 °C.
For `Cc1cncc(C)c1-c1c(C)cc(OS(=O)(=O)C(F)(F)F)cc1C`, the melting point was in the range of 68 to 69 °C.
Consider `CN(CCn1ncc2ccccc2c1=O)CC(O)c1ccc(NS(C)(=O)=O)cc1` (configuration not stated), for which the melting point was in the range of 134 to 137 °C.
Molecule `Cc1c(C(=O)OC(C)C)ncc2[nH]c3cccc(Oc4ccc(Cl)cn4)c3c12` yielded a melting point of 243 to 245 °C.
To `COC(=O)C(C)(C)Cc1c(SC(C)(C)C)c2ccc(OC)cc2n1C` belongs 97 to 98 °C.
As to `Fc1ccccc1C1=NCc2c[nH]cc2-c2ccc(Cl)cc21`, the melting point fell in the range of 197 to 199 °C.
Regarding `COc1ccc(S(=O)(=O)N2C(=O)C(NC(C)=O)(c3ccccc3)c3cc(Cl)ccc32)c(OC)c1` (configuration not stated), the melting point is 253 °C.
In turn, `Cc1ccc2c(c1)c(=O)c1c(cnn1C)n2-c1cccc(I)c1` registered a melting point of 123 °C.
The result for `CC(C)(C)NNC(=O)c1nn(-c2ccc(F)cc2F)c2c1C1CCC2C1` (configuration not stated) reads 140 to 142 °C; that for `CCCCCCCCCCCCCCCCSCC(C)(C)CO`, 25 to 28 °C.

By melting point is commonly meant the temperature, or range, at which the solid turns liquid.

These data come from a melting point compilation (Tetko et al.; mined from patent text by program, amines drawn as free bases though some values may be those of a salt).
